{"source": "ChEMBL document CHEMBL5465560", "about": "“Selectivity Literature for EUbOPEN Chemogenomic Library” (2024)", "key": {"[1]": {"biological_target": "T1, Serine/threonine-protein kinase TBK1 (Homo sapiens) (UniProt Q9UHD2)", "T1 sequence (whole entry)": "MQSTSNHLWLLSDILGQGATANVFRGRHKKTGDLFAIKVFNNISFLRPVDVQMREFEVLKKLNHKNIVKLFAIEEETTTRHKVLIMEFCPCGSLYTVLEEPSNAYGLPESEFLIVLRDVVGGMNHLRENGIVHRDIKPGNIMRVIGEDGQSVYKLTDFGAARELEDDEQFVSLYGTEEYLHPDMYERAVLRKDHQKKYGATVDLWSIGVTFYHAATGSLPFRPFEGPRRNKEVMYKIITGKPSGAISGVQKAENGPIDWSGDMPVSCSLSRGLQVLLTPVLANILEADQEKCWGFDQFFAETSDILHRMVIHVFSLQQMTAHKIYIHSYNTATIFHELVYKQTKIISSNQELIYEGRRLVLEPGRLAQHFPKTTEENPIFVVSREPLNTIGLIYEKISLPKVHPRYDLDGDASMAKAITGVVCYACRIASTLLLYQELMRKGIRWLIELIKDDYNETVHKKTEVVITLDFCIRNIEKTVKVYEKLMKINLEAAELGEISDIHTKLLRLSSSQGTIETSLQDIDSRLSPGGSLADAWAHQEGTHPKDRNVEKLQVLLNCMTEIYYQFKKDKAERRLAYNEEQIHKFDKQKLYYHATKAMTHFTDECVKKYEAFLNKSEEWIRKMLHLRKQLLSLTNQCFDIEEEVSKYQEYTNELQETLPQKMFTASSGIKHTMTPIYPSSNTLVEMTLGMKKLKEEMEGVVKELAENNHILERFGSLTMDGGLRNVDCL", "assay": "Selectivity interaction (KinomeScan (DiscoverX)) EUB0000655a TBK1", "conditions": "at 10 µM"}, "[2]": {"biological_target": "Maternal embryonic leucine zipper kinase (Homo sapiens) (UniProt Q14680)", "sequence (Q14680 whole entry, looked up)": "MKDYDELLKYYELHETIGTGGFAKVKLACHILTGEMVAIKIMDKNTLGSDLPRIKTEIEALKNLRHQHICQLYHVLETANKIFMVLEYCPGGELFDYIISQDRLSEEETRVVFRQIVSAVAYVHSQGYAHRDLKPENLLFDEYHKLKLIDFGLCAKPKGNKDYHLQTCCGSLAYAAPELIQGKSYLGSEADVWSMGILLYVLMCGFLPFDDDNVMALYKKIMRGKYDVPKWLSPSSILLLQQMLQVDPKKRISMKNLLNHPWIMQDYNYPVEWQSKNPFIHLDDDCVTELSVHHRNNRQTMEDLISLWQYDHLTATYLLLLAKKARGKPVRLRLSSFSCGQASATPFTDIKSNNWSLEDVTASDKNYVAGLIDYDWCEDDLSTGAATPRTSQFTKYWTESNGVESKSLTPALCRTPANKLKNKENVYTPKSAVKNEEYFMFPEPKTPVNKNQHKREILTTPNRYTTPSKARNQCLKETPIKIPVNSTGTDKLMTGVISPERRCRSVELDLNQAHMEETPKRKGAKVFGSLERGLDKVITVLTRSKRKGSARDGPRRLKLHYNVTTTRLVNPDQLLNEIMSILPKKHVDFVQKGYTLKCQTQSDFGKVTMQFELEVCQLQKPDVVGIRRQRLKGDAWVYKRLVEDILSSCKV", "assay": "Selectivity interaction (KinomeScan (DiscoverX)) EUB0001079a MELK", "conditions": "at 1 µM"}, "[3]": {"biological_target": "Serine/threonine-protein kinase 25 (Homo sapiens) (UniProt O00506)", "sequence (O00506 whole entry, looked up)": "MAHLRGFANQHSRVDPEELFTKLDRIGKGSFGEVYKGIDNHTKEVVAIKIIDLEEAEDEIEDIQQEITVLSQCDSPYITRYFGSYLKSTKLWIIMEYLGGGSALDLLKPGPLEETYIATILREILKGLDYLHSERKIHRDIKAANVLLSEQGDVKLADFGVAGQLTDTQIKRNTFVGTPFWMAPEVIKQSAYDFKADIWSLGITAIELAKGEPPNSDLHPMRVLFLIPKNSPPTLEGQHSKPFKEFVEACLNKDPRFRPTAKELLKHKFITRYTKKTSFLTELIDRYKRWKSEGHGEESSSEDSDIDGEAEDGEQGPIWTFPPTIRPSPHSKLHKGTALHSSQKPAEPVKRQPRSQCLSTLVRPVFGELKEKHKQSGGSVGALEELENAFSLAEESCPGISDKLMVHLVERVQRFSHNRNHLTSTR", "assay": "Selectivity interaction (KinomeScan (DiscoverX)) EUB0001619a STK25", "conditions": "at 1 µM"}, "[4]": {"biological_target": "T2, Histone-lysine N-methyltransferase EHMT2 (Homo sapiens) (UniProt Q96KQ7)", "T2 sequence (whole entry)": "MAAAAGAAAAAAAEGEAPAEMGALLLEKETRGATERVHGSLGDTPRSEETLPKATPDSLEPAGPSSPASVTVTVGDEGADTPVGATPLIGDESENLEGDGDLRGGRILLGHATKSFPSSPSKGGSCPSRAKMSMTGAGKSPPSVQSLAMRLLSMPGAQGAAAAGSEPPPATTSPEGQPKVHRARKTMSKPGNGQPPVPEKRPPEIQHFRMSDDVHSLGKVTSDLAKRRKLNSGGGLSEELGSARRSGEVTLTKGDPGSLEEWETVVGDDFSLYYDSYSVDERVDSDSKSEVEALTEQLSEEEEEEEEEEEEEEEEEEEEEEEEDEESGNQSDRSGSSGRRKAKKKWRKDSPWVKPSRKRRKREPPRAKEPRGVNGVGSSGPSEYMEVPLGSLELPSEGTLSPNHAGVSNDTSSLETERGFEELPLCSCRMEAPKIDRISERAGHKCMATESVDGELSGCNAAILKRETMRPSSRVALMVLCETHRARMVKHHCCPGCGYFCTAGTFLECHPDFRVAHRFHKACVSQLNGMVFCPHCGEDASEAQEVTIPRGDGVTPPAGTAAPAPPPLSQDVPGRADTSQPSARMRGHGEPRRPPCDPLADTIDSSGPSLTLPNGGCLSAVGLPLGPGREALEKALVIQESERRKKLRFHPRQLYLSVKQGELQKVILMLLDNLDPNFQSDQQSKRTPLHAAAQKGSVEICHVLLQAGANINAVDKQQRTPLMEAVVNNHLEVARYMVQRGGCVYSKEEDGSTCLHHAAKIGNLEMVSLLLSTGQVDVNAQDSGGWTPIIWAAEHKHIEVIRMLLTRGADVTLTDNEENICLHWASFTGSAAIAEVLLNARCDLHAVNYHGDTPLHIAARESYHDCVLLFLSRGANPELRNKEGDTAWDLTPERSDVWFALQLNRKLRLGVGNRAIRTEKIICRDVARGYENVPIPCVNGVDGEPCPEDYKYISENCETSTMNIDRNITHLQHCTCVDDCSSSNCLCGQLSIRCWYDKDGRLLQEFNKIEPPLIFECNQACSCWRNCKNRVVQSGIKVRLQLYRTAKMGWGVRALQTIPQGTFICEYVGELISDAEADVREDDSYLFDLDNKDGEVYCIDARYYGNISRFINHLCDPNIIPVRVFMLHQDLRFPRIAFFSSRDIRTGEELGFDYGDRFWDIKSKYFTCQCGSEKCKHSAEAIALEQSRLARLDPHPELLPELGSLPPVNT", "conditions": "at 1 µM"}, "[5]": {"biological_target": "T3, Dual specificity mitogen-activated protein kinase kinase 7 (Homo sapiens) (UniProt O14733)", "T3 sequence (whole entry)": "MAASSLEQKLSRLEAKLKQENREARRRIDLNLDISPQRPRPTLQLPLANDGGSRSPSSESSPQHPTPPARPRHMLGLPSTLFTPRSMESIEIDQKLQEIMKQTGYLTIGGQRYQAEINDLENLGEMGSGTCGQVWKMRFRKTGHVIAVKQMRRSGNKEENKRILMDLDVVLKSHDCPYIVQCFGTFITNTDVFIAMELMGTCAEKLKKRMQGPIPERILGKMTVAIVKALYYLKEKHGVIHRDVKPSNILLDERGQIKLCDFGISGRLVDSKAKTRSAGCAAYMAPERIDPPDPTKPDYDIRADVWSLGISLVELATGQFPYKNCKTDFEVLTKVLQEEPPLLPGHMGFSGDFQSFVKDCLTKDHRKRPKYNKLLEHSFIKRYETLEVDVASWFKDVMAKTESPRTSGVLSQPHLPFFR", "assay": "Selectivity interaction (KinomeScan (DiscoverX)) EUB0000229b MAP2K7", "conditions": "at 10 µM"}, "[6]": {"biological_target": "T4, Aurora kinase C (Homo sapiens) (UniProt Q9UQB9)", "T4 sequence (whole entry)": "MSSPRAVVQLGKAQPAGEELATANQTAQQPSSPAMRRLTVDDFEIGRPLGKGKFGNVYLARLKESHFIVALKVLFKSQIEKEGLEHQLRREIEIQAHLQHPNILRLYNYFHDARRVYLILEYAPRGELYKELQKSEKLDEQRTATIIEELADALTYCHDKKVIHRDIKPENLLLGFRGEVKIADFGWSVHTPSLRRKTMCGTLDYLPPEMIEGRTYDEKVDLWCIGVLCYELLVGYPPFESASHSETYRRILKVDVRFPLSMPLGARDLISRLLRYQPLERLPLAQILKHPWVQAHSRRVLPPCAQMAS", "assay": "Selectivity interaction (KinomeScan (DiscoverX)) EUB0001049a AURKC", "conditions": "at 1 µM"}, "[7]": {"biological_target": "T3, Dual specificity mitogen-activated protein kinase kinase 7 (Homo sapiens)", "assay": "Selectivity interaction (KinomeScan (DiscoverX)) EUB0000695a MAP2K7", "conditions": "at 100 nM"}}, "data": [{"smiles": "CN(C)CCOc1ccc(-c2nc(-c3ccncc3)c(-c3ccc4c(c3)CC/C4=N\\O)[nH]2)cc1", "values": [{"measurement": "% of control", "setting": "[1]", "result": 84, "unit": "%"}]}, {"smiles": "Nc1cnc(N2CCc3cc(S(=O)(=O)Nc4c(F)cc(Cl)cc4F)cc(N4CCCC4=O)c32)nc1", "note": "[TP-020n]", "values": [{"measurement": "% of control", "setting": "[2]", "result": 90, "unit": "%"}]}, {"smiles": "N#Cc1cccc(-c2c[nH]c3ncnc(N4CCOCC4)c23)c1", "values": [{"measurement": "% of control", "setting": "[3]", "result": 28, "unit": "%"}]}, {"smiles": "CNCCN1CCC(c2cc(CN(C)C(=O)c3cccc(Oc4ccccc4)c3)ccn2)CC1", "values": [{"measurement": "% activity", "setting": "[4]", "result": "> 90", "unit": "%"}]}, {"smiles": "COc1cc(N(C)c2ccnc3ccc(C(F)(F)F)cc23)cc(OC)c1OC", "values": [{"measurement": "% binding", "setting": "[5]", "result": 83, "unit": "%"}]}, {"smiles": "COc1cc(Nc2nc(C)cc(-c3cnn4nc(OC)ccc34)n2)cc(C(F)(F)F)c1", "values": [{"measurement": "% of control", "setting": "[6]", "result": 84, "unit": "%"}]}, {"smiles": "Cc1cc(F)c(C(=O)Nc2cccc(-c3nncn3C(C)C)n2)cc1-n1cnc(C2CC2)c1", "values": [{"measurement": "% of control", "setting": "[7]", "result": 95, "unit": "%"}]}]}
